Data taken from article PMC12655518, “Screening Novel Furoxan Derivatives as Potential Inhibitors Targeting Thioredoxin Glutathione Reductase of Fasciola gigantica” (Pharmaceuticals, 2025).
Like-named read-outs stand apart in the source and are kept apart here.

Experiments:
[1] = test system: Taenia crassiceps cysticerci; design: method as in PMID 20431894; details: cited from earlier work
FgTGRsec (TrxR activity) [2] = molecular target: T1, FgTGRsec (TrxR activity) (Fasciola gigantica, UniProt A0A0K1NYF8); design: method as in PMID 29526505; details: cited from earlier work
FgTGRsec (GR activity) = test system: FgTGRsec (GR activity); design: method as in PMID 29526505; details: cited from earlier work
FgTGRsec (TrxR activity) [3] = molecular target: T1, FgTGRsec (TrxR activity); assay: DTNB-based TrxR activity inhibition assay of FgTGRsec; assay type: biochemical; details: DTNB reduction, 20 min incubation, triplicate, read-out: IC50 of rFgTGRsec
Description: The TrxR activity of FgTGR and FgTGRsec was determined by using the 5, 5′-diothiobis (2-nitrobenzoic acid, DTNB, 4 mg/mL) (Sigma, St. Louis, MO, USA) reduction assay at room temperature. The reaction mixture was composed of 180 μL working buffer (0.1 mM potassium phosphate, pH 7.0, 10 mMEDTA, 100 μM β-nicotinamide adenine dinucleotide phosphate (NADPH) (Sigma)), 4 μL assay buffer (0.1 mM potassium phosphate, pH 7.0, 10 mM EDTA), 6 μL DTNB, and 10 μL rFgTGR or rFgTGRsec (600 μg/mL). The reaction was initiated by the adding DTNB at concentrations ranging from 100 μmol/L to 1000 μmol/L. An increase in absorbance at 412 nm was observed within the first 2 min. One unit of thioredoxin reductase (TrxR) activity was defined as the amount of enzyme that catalyzes the production of 1 μmol of 2-nitro-5-thiobenoic acid (TNB) per minute at room temperature. The reaction mixture without FgTGR or FgTGRsec was used as a negative control, and the processes of the negative experiments were the same as the above description.
To evaluate the effect of furoxan derivatives on FgTGRsec, the activity of TrxR was measured. The furoxan derivatives were soluble in dimethyl sulfoxide (DMSO), and seven concentrations of each derivative were prepared based on their distinct structures. For the DTNB-based TrxR activity inhibition assay, reaction mixtures were prepared as described in the TrxR activity assay protocol. The components were incubated for 20 min, after which the reaction was initiated by adding DTNB. The increase in absorbance at 412 nm was measured to evaluate the inhibitory effect of each furoxan derivative. The half-maximal inhibitory concentration (IC50) values of the compounds were calculated by GraphPad Prism v6.0c software. The reaction without FgTGRsec and furoxan derivatives served as the blank control, while the reaction with furoxan was the positive control. All assays were performed in triplicate.

SjTGRsec (TrxR activity) = test system: SjTGRsec (TrxR activity); design: method as in PMID 33902686; details: S. japonicum, result in words; cited from earlier work

T1 sequence (A0A0K1NYF8 entry or part of it): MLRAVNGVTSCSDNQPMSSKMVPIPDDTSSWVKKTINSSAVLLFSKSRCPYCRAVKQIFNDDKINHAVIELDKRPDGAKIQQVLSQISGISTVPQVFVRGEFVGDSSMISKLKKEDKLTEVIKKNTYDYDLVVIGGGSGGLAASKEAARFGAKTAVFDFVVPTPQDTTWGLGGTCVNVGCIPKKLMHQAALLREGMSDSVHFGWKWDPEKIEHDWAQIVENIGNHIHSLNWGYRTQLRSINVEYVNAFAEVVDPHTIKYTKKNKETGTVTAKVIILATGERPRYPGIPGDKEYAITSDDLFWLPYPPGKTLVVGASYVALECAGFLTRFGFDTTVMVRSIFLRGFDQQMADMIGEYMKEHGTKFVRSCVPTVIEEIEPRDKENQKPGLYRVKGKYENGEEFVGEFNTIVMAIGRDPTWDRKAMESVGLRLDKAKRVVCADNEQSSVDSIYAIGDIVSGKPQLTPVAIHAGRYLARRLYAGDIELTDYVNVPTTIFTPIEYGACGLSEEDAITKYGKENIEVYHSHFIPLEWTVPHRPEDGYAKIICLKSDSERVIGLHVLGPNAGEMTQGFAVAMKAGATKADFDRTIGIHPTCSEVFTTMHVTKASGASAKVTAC

SMILES | IC50 (FgTGRsec (TrxR activity) [3]) | other results
CC(=O)OC[C@H]1O[C@@H]([S-])[C@H](OC(C)=O)[C@@H](OC(C)=O)[C@@H]1OC(C)=O.CCP(CC)CC.[Au+] [AF, auranofin] |  | IC50 ([1]; Taenia crassiceps cysticerci cultured with AF for 12 h): 3.8 µM; survival of cysticerci ([1]; after culturing with AF for 12 h): all dead; IC50 (FgTGRsec (TrxR activity) [2]): 870 nM; IC50 (FgTGRsec (GR activity)): 8.3 µM
[O-][n+]1onc(-c2ccc(C(F)(F)F)cc2)c1CN1CCN(c2ccccc2F)CC1 [CH-33] | 18.5 ± 2.57 µM | 
[O-][n+]1onc(-c2cccnc2)c1CO [LGM-1] | 6.93 ± 1.74 µM | 
[O-][n+]1onc(-c2ccncc2)c1CO [LGM-2] | 15.2 ± 0.8 µM | 
[O-][n+]1onc(-c2ccc(C(F)(F)F)nc2)c1CO [LGM-35] | 4.5 ± 0.35 µM | inhibition of TrxR activity (SjTGRsec (TrxR activity)): most significant inhibition
[O-][n+]1onc(-c2cccc(Cl)c2)c1CO [ZWJ-19] | 3.82 ± 0.33 µM | 
